# Laboratory results as given in patent US10894787B2, “Modulators of the GPR119 receptor and the treatment of disorders related thereto” (Arena Pharmaceuticals, Inc., priority 2010, dated 2021).
# Assay: Dynamic moisture-sorption (DMS) analysis
# Assay type: physicochemical
# Details: at about 90% RH and 25° C.
# Description: A dynamic moisture-sorption (DMS) study was conducted using a dynamic moisture-sorption analyzer, VTI Corporation, SGA-100. Samples were prepared for DMS analysis by placing 5 mg to 20 mg of a sample in a tared sample holder. The sample was placed on the hang-down wire of the VTI balance. A drying step was run, typically at 40° C. and 0.5-1% RH for 1 h. The isotherm temperature is 25° C. Defined % RH holds typically ranged from 10% RH to 90% RH, with intervals of 10 to 20% RH. A % weight change smaller than 0.010% over 10 min, or up to 2 h, whichever occurred first, was required before continuing to the next % RH hold. The water content of the sample equilibrated as described above was determined at each % RH hold.
structure (smiles),measurement,value
"CN(C)C(=O)c1ccc(Nc2ncnc(N3CCC(c4nc(C(C)(C)F)no4)CC3)c2F)c(F)c1 [Compound 1 (Anhydrous Form), 3-fluoro-4-(5-fluoro-6-(4-(3-(2-fluoropropan-2-yl)-1,2,4-oxadiazol-5-yl)piperidin-1-yl)pyrimidin-4-ylamino)-N,N-dimethylbenzamide]",DMS weight gain,FIG. 8: Less than about 0.35% weight gain at about 90% RH
